Reference: US20240269104A1, “METHOD FOR TREATING PARKINSON'S DISEASE” (Olatec Therapeutics, Inc., priority 2021, published 2024)

Key:
[1] = system: dopaminergic neurons; assay: tyrosine hydroxylase (TH) immunostaining of the nigrostriatal pathway after MPTP; format: in vivo, mice; conditions: 200 mg/kg for 7 days; seven days after MPTP-acute
Procedure: To evaluate the effect of dapansutrile on dopaminergic neurons, mice were subjected to MPTP acute administration. Seven days after, when the levels of dopaminergic neurons are lower, the nigrostriatal pathway was evaluated by tyrosine hydroxylase (TH) immunostaining to assess the viability of dopaminergic neurons. Mice were perfused with 4% paraformaldehyde (Sigma-Aldrich) in PBS. Brains were removed and immersed in the same perfusion buffer overnight and then cryoprotected with 30% sucrose in 0.1M PBS at 4° C. After dehydration, samples were embedded in paraffin molds for sectioning. Coronal brain sections (4 μm thick) containing the St and SNpc were obtained and transferred to glass microscope slides. After antigen retrieval, slides were incubated with primary anti-TH antibody (1:2000, Abcam, Cambridge, UK) for 30 minutes at room temperature. TH antibody binding was detected using an anti-rabbit HRP-conjugated secondary polymer, followed by chromogenic visualization with diaminobenzidine (DAB, Cell Signaling). Hematoxylin counterstain was used to visualize nuclei. Processing of the samples was performed by Inotiv Boulder (Boulder, CO). Dopaminergic immunoreactivity in the St was calculated by measuring the integrated density by NIH ImageJ software. Stereological counting in the SNpc was performed by manual quantification of TH-positive neurons. Three sections per mice were used. Five mice were used for the sham+saline group, and seven mice were used for the MPTP group.

[2] = system: IL-6; assay: IL-6 in brain homogenates by ELISA after MPTP; format: in vivo, mice; conditions: 200 mg/kg once each day; seven days after MPTP-acute
Source text: It has been reported that administration of MPTP induces the assembly of NLPR3 inflammasome in the brain. Mice were sacrificed after anesthesia by cervical dislocation at 4 and 7 days after MPTP administration. Brains were collected, and the striatum (St) and ventral midbrain (VM) areas of both hemispheres were excised and frozen in liquid nitrogen. Samples were homogenized in RIPA buffer (Thermo Fisher, Waltham, MA) supplemented with protease inhibitor (Thermo Fisher) using a TissueRuptor (Qiagen, Germantown, MD). Protein concentration was determined using a BCA Protein Assay Kit (Thermo Fisher) according to manufacturer's instructions. Samples were diluted to 2 mg/ml in the same extraction buffer.
Levels of IL-1β, IL-18, IL-6, and IL-17A from brain homogenates were measured by ELISA DuoSet kit (R&D Systems, Minneapolis, MN). ELISA kit for IL-1β detects 92-95% of the 17 kDa form and only 8-5% of the precursor form of this cytokine. 96-well plates (ThermoFisher Scientific) were coated with capture antibody. Samples were incubated for two hours at room temperature. Detection antibodies and streptavidin-HRP were added. TMB ELISA (cBioscience, San Diego, CA) was used as substrate solution. Results were measured in a microplate reader (Bio-Tek, Santa Clara, CA). Final values were normalized by the protein concentration of each sample. 4-5 mice per group were used for each cytokine.

CS(=O)(=O)CCC#N [dapansutrile, 3-methanesulfonylpropionitrile]
TH-positive fibers and neurons versus control mice [1]: no significant changes against control mice were observed
density of TH-positive fibers in the striatum versus MPTP mice treated with saline [1]: increase
increase of TH-positive neurons in the SNpc [1]: 3 times
levels of IL-6 in the ventral midbrain (VM) [2]: No effects were detected
reduction of levels of IL-6 in the striatum (St) [2]: 26%
